According to US20100317685A1, “N-PHENYL-IMIDAZO[1,2-a]PYRIDINE-2-CARBOXAMIDE DERIVATIVES, THEIR PREPARATION AND THEIR THERAPEUTIC APPLICATION” (SANOFI-AVENTIS, priority 2008, published 2010):
pEC50: −log10 of the molar value.

Target: T1, mouse Nurr1 receptor (Mus musculus, UniProt Q06219)
T1 construct: a cell line (N2A) endogenously expressing the mouse Nurr1 receptor; host or cells: Neuro-2A (N2A) mouse neuroblastoma cells stably transfected with 8NBRE-luciferase
Assay: In vitro activity on N2A cells (NBRE-luciferase reporter)
Assay type: cell-based
Details: N2A-8NBRE cells, 24 hours incubation
Protocol: Evaluation of the In Vitro Activity on N2A Cells
The activity of the compounds according to the invention was evaluated on a cell line (N2A) endogenously expressing the mouse Nurr1 receptor and stably transfected with the NOT binding response element (NBRE) coupled to the luciferase reporter gene. The EC50 values are between 0.01 and 1000 nM. The assays were carried out according to the procedure described below.
The Neuro-2A cell line comes from a standard commercial source (ATCC). The Neuro-2A clone was obtained, from a spontaneous tumour originating from an A albino mouse strain, by R. J Klebe et al. This Neuro-2A line is subsequently stably transfected with 8NBRE-luciferase. The N2A-8NBRE cells are cultured until confluence in 75 cm^2 culture flasks containing DMEM supplemented with 10% of foetal calf serum, 4.5 g/l of glucose and 0.4 mg/ml of geneticin. After a week of culture, the cells are recovered with 0.25% trypsin for 30 seconds and then resuspended in DMEM without phenol red, containing 4.5 g/l of glucose and 10% of Hyclone delipidized serum, and deposited into transparent-bottom 96-well white plates. The cells are deposited at a rate of 60 000 per well in 75 μl for 24 hours before the addition of the products. […] The plates are subsequently measured in a luminescence counter for microplates after having been sealed with an adhesive film. […]

T1 sequence (Q06219 whole entry): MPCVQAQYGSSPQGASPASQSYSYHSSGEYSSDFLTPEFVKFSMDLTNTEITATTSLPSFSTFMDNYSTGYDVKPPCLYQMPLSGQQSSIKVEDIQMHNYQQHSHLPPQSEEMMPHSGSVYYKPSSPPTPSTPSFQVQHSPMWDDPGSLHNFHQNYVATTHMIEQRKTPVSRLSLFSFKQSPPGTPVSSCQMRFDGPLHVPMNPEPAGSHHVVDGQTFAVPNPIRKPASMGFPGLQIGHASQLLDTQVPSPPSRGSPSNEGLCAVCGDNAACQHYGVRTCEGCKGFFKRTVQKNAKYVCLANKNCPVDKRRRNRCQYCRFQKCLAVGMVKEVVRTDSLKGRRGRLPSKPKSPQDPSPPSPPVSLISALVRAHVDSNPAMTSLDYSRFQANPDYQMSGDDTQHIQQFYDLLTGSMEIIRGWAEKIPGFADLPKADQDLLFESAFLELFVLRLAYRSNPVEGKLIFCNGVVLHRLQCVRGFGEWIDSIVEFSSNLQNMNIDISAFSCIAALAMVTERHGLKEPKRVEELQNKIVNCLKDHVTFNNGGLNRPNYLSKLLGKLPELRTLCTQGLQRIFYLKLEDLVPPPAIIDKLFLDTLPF

pEC50 | Compound
7.57 | N#Cc1cccc(NC(=O)c2cn3cc(-c4cccc(CO)c4)ccc3n2)c1 [Compound 5, N-(3-cyanophenyl)-6-[3-(hydroxymethyl)phenyl]imidazo[1,2-a]pyridine-2-carboxamide]
9.40 | N#Cc1c(F)cccc1NC(=O)c1cn2cc(-c3cccc(CO)c3)ccc2n1 [Compound 8, N-(2-cyano-3-fluorophenyl)-6-[3-(hydroxymethyl)phenyl]imidazo[1,2-a]pyridine-2-carboxamide]
